Columns and labels:
[1] = Solvent selection for the drug phase: dissolution of leuprolide; assay type: physicochemical
From the text: Solubility, viscosity, spray pattern, and density of polymer solution were investigated using four solvents (methylene chloride, acetonitrile, ethyl acetate, and acetone), and the optimal solvent was selected from among these. Parameters including dissolution of the leuprolide, miscibility with the solvent of polymer phase, drying degree of dry matter, and density of drug solution were investigated using three solvents (water, ethanol, and methanol), and the optimal solvent was selected.

[2] = rat, in vivo, sc; cited from earlier work
Description: The IVIVC model development in this study was carried out using Berkeley Madonna (program version 8.3.14). Differences in PK profiles by formulations were evaluated by adding a release compartment to reflect the release characteristic.

Dissolution of Leuprolide ([1]; solvent methanol): high solubility | Dissolution of Leuprolide ([1]; solvent water): high solubility
SMILES: CCNC(=O)[C@@H]1CCCN1C(=O)[C@H](CCCNC(=N)N)NC(=O)[C@H](CC(C)C)NC(=O)[C@@H](CC(C)C)NC(=O)[C@H](Cc1ccc(O)cc1)NC(=O)[C@H](CO)NC(=O)[C@H](Cc1c[nH]c2ccccc12)NC(=O)[C@H](Cc1c[nH]cn1)NC(=O)[C@@H]1CCC(=O)N1 [leuprolide]
Dissolution of Leuprolide ([1]; solvent ethanol): dissolves leuprolide slowly, and the drug easily precipitated | CL (clearance) [2]: 514.46 mL/h | Vd (volume of distribution) [2]: 487.40 mL | ka (absorption rate constant) [2]: 16.67 h⁻¹

Source: paper PMC7022573, “Development of Level A In Vitro–Vivo Correlation for Electrosprayed Microspheres Containing Leuprolide: Physicochemical, Pharmacokinetic, and Pharmacodynamic Evaluation” (Pharmaceutics, 2020)
